Earlier results in patent US7045166B2, “Sweetener compositions containing fractions of inulin” (priority 1998, dated 2006).

Columns and labels:
[1] = artificial sweetener, general statement
[2] = relative to sucrose (sugar)

SMILES | heat stability [1] | sweetness of an equivalent dose of sucrose [2]
OC[C@H]1O[C@H](O[C@]2(CCl)O[C@H](CCl)[C@@H](O)[C@@H]2O)[C@H](O)[C@@H](O)[C@H]1Cl [Sucralose, sucralose] | heat stable | 600 times
COC(=O)[C@H](Cc1ccccc1)NC(=O)[C@H](CC(=O)O)NCCC(C)(C)C [Neotane] | – | 8000 times
